# Measured values published in patent publication US20050282743A1, “Molecular interactions in cells” (Arbor Vita Corporation, priority 2001, published 2005).
# Ends that are not written are not given here. Peptide text beside a SMILES is read from it. * marks the point of attachment. Biotin = O=C1N[C@H]2[C@H](CS[C@H]2CCCCC(=O)*)N1
# Molecular target: T1, PDZ protein (GST-PDZ fusion) (Homo sapiens, UniProt Q96JH8)
# T1 construct: made in house; host or cells: E. coli (DH5alpha, BL21 or JM109)
# T1 sequence (Q96JH8 1-1075): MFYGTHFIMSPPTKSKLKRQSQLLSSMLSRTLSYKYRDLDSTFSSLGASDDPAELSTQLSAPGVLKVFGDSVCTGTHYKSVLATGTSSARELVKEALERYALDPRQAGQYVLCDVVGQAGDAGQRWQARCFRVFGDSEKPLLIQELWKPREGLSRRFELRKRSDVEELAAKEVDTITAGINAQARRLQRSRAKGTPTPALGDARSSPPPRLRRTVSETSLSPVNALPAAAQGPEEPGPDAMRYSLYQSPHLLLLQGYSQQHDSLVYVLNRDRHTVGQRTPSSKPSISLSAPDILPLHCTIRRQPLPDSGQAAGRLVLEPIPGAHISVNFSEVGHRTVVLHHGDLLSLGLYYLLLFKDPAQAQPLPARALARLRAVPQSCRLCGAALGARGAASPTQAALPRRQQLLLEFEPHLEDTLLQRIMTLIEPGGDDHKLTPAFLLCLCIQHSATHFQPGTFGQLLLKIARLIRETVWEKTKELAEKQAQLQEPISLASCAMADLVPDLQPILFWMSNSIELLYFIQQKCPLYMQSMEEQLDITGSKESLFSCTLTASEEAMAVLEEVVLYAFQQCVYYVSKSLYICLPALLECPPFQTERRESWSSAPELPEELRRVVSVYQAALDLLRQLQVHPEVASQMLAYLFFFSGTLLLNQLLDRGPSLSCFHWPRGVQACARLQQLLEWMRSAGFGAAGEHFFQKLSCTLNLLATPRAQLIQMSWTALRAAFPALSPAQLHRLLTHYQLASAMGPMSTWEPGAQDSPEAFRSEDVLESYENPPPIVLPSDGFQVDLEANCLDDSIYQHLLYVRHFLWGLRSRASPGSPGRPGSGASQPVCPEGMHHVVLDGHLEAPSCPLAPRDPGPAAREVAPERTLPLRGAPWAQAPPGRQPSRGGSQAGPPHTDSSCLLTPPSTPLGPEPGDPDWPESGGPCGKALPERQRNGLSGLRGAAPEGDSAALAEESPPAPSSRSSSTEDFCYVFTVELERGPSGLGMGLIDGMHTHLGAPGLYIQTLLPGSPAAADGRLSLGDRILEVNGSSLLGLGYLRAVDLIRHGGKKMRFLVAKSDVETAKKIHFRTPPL
# Experiment: G' assay (10 uM PL peptide), results of TABLE 7 and TABLE 12
# Assay type: binding
# Details: PDZ FLJ 10324, PDZ Domain 1
# Outline: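 Binding classes derive from A450 nm of bound biotin-tagged PL peptide. A score of 5 needs A450 above 4 in more than two repeats.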
row,Compound,Classification
1,CC(C)C[C@H](NC(=O)[C@H](CC(C)C)NC(=O)[C@@H](NC(=O)[C@H](CC(=O)O)NC(=O)CCCC[C@@H]1SC[C@@H]2NC(=O)N[C@@H]21)[C@@H](C)O)C(=O)N[C@@H](CC(C)C)C(=O)N[C@H](C(=O)N[C@@H](CCC(=O)O)C(=O)N[C@@H](CC(N)=O)C(=O)N[C@@H](CCC(=O)O)C(=O)NCC(=O)N[C@@H](CC(=O)O)C(=O)N[C@@H](CCCCN)C(=O)N[C@H](C(=O)N[C@@H](CCC(=O)O)C(=O)N[C@@H](CCC(=O)O)C(=O)N[C@@H](CCC(N)=O)C(=O)N[C@H](C(=O)N[C@@H](CO)C(=O)N[C@@H](Cc1ccc(O)cc1)C(=O)N[C@H](C(=O)O)C(C)C)C(C)C)[C@@H](C)O)[C@@H](C)O [5H2B_HUMAN] (Biotin-DTLLLTENEGDKTEEQVSYV-OH; C-terminus assumed),2 (A450 nm 1-2)
2,CC[C@H](C)[C@H](NC(=O)[C@H](Cc1ccc(O)cc1)NC(=O)[C@@H](NC(=O)[C@@H]1CCCN1C(=O)[C@H](CCC(N)=O)NC(=O)[C@H](CCC(=O)O)NC(=O)[C@H](CCC(N)=O)NC(=O)[C@H](C)NC(=O)[C@@H](NC(=O)[C@H](CC(C)C)NC(=O)[C@H](CC(C)C)NC(=O)[C@H](CCCNC(=N)N)NC(=O)[C@H](Cc1ccc(O)cc1)NC(=O)[C@H](CCSC)NC(=O)[C@H](C)NC(=O)[C@H](C)NC(=O)[C@@H]1CCCN1C(=O)[C@H](CCSC)NC(=O)[C@@H](NC(=O)[C@H](CCCCN)NC(=O)CCCC[C@@H]1SC[C@@H]2NC(=O)N[C@@H]21)[C@@H](C)O)[C@@H](C)O)C(C)C)C(=O)O [MINT-1] (Biotin-KTMPAAMYRLLTAQEQPVYI-OH; C-terminus assumed),5 (A450 nm of 4 more than 2× repeated)
3,ISGTPTSTMVHGMTSSSSVV (Biotin-ISGTPTSTMVHGMTSSSSVV) [Clasp-2],1 (A450 nm 0-1)
4,CSCC[C@H](NC(=O)[C@H](C)NC(=O)[C@H](CCCNC(=N)N)NC(=O)CNC(=O)[C@@H](NC(=O)[C@H](Cc1c[nH]c2ccccc12)NC(=O)[C@H](CCCNC(=N)N)NC(=O)CNC(=O)CCCC[C@@H]1SC[C@@H]2NC(=O)N[C@@H]21)[C@@H](C)O)C(=O)N[C@@H](CO)C(=O)N[C@@H](C)C(=O)N[C@@H](Cc1c[nH]c2ccccc12)C(=O)N[C@@H](CCCCN)C(=O)N1CCC[C@H]1C(=O)N[C@H](C(=O)N[C@@H](CCCNC(=N)N)C(=O)N[C@@H](CCCNC(=N)N)C(=O)N[C@@H](CCC(=O)O)C(=O)N[C@H](C(=O)N[C@@H](CCC(=O)O)C(=O)N[C@H](C(=O)O)C(C)C)[C@@H](C)O)[C@@H](C)O [HPV E6 #35 (modified)] (Biotin-GRWTGRAMSAWKPTRRETEV-OH; C-terminus assumed),1 (A450 nm 0-1)
5,CC[C@H](C)[C@H](NC(=O)[C@H](CCC(N)=O)NC(=O)CCCC[C@@H]1SC[C@@H]2NC(=O)N[C@@H]21)C(=O)N[C@@H](CO)C(=O)N1CCC[C@H]1C(=O)NCC(=O)NCC(=O)N[C@@H](CC(C)C)C(=O)N[C@@H](CCC(=O)O)C(=O)N1CCC[C@H]1C(=O)N1CCC[C@H]1C(=O)N[C@@H](CO)C(=O)N[C@@H](CCC(=O)O)C(=O)N[C@@H](CCCCN)C(=O)N[C@@H](Cc1c[nH]cn1)C(=O)N[C@@H](Cc1ccccc1)C(=O)N[C@@H](CCCNC(=N)N)C(=O)N[C@@H](CCC(=O)O)C(=O)N[C@H](C(=O)N[C@@H](CCC(=O)O)C(=O)N[C@H](C(=O)O)C(C)C)[C@@H](C)O [Tax],1 (A450 nm 0-1)
6,CC(C)C[C@H](NC(=O)[C@H](C)NC(=O)[C@@H](NC(=O)[C@@H](NC(=O)[C@H](Cc1c[nH]cn1)NC(=O)[C@H](CC(C)C)NC(=O)CNC(=O)[C@H](CCC(N)=O)NC(=O)CNC(=O)CNC(=O)[C@H](C)NC(=O)[C@H](C)NC(=O)[C@H](CCCNC(=N)N)NC(=O)[C@H](C)NC(=O)[C@H](CO)NC(=O)[C@H](CC(=O)O)NC(=O)[C@H](CC(=O)O)NC(=O)[C@H](Cc1c[nH]c2ccccc12)NC(=O)[C@H](C)NC(=O)CCCC[C@@H]1SC[C@@H]2NC(=O)N[C@@H]21)C(C)C)[C@@H](C)O)C(=O)O [LPAP] (Biotin-AWDDSARAAGGQGLHVTAL-OH; C-terminus assumed),1 (A450 nm 0-1)
